Test results reported in PubChem BioAssay AID1902 (Broad Institute, 2009).
Activity calls are given as the source filed them.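 The calls were made as follows: active = EC50 no more than a set limit of log units above the highest dose; inactive = the rest.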

Target: S. pyogenes SKKanGAS, kanamycin survival, BacTiterGlo, 6 h
Assay: SKKanGAS survival reduction under kanamycin, dose response, streptokinase promoter inhibitor project, SKKanGAS strain, luminescence, dose confirmation (AID 1902);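 also: lower survival reflects blocked streptokinase promoter driving kanamycin resistance gene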

SMILES	EC50
N#Cc1ccccc1CN1C(=O)S/C(=C/c2cccn2-c2ccc(C(=O)O)cc2)C1=O	7.03 µM
O=C(/C=C/c1ccccc1)NCCc1ccccc1	> 15 µM (inactive)
CCc1cc2c(COC(=O)c3cccc(NS(C)(=O)=O)c3)cc(=O)oc2cc1O	7.84 µM
O=C(Nc1nnc(-c2ccc(Br)cc2)o1)c1cccc(N2C(=O)CCC2=O)c1	1.35 µM
O=C(Nc1ccc(Cl)c(Cl)c1)N1CC=C(c2ccccc2)CC1	8.08 µM
CC/C(=C(\c1ccccc1)c1ccc(OCCN(C)C)cc1)c1ccccc1	6.17 µM
CCCC(Oc1ccc(Br)cc1)c1nc2c3cc(OC)c(OC)cc3nc(=S)n2[nH]1 (stereo unspecified)	0.145 µM
Cc1cc(C)c(-c2cc(NC(=O)COC(=O)c3ccc(CO)cc3)n(-c3ccccc3)n2)cc1C	8.32 µM
Cc1nnc(-c2ccccc2)c(=O)n1/N=C/c1c(O)ccc2ccccc12	4.37 µM
Cc1ccc(-c2cc([C@H]3[C@@H]4C=CCC[C@@]4(C)C(=O)N3Cc3ccccc3)ccc2F)cc1	3.44 µM
COc1ccc(Cl)cc1/C=C/c1ccc2cccc(O)c2n1	0.388 µM
COc1cccc(C(=O)N2C(C(=O)O)CSC2c2ccccc2Cl)c1 (stereo unspecified)	> 15 µM (inactive)
Oc1c(CN2CCN(c3ccccn3)CC2)cc(Cl)c2cccnc12	5.58 µM
Cc1cccc(OC(=O)c2sc3ncn(C)c(=O)c3c2C)c1	4.09 µM
C=CCn1c(=O)c(C(=O)NCc2ccccc2)c(O)c2ccccc21	3.32 µM
CC(C)c1ccc2c(c1)C1(NN=C(c3ccccc3)S1)C(=O)N2 (stereo unspecified)	< 0.06 µM
O=C(Nc1ccccc1)Nc1cc(Cl)cc(Cl)c1	6.8 µM
C#CCOCCOCCOCCNc1nc(N2CCN(C(=O)CCCCCCCCCCNC(=O)[C@H](CCCCN)n3cc(C[C@@H](C)CC)nn3)CC2)nc(N2CCN(C(=O)CCCCCCCCCCNC(=O)[C@H](CCCCN)n3cc(C[C@@H](C)CC)nn3)CC2)n1	5.16 µM
Cc1cc(C)c2c(c1)NC(c1cc3c(cc1Br)OCO3)C1CC=CC21 (stereo unspecified)	8.13 µM
COCC1CCN(C(=O)c2ccc3oc(Cc4ccccc4)nc3c2)C1 (stereo unspecified)	> 15 µM (inactive)
O=C(COc1ccc(Cl)cc1Cl)Nc1ccc(C(=O)Nc2ccccc2C(=O)O)cc1	2.3 µM
O=C(NCc1ccccn1)Nc1ccc(F)c(Cl)c1	> 15 µM (inactive)
COc1ccc(-c2nn(-c3ccccc3)cc2/C=C2/SC(=S)N(CCC(=O)O)C2=O)cc1	1.83 µM
O=C(O)CN1C(=O)/C(=C\c2cc(Br)ccc2OCc2ccccc2Cl)SC1=S	2.08 µM
Cc1ccc(-n2cc3c(-c4cccc(Br)c4)nnc(C)c3n2)cc1	7.09 µM
CCSc1nnc(NC(=O)c2nc(-c3ccccc3)n(-c3ccccc3)n2)s1	3.49 µM

SMILES	EC50
Oc1cc(OCc2ccccc2)ccc1-c1[nH]ncc1-c1ccccc1	3.06 µM
CC(Nc1nc(-c2ccccc2O)nc2ccccc12)c1ccccc1 (stereo unspecified)	8.79 µM
Cc1cccc(-c2oc3ccccc3c2C#CCCCCO)c1	5.72 µM
CC(C)(C)c1cc(Cl)c(O)c(NC(=S)NC(=O)c2cccnc2)c1	0.346 µM
COc1ccc(-c2nc(/C=C3\C(C)=Nc4ccccc43)c(O)o2)cc1	3.5 µM
O=C(O)c1ccc(-c2nc(-c3ccc(Cl)c(Cl)c3)cs2)cc1	3.82 µM
CCOc1ccc(NC(=S)N=Nc2c(O)[nH]c3ccccc23)cc1	0.525 µM
CC1=Nc2ccccc2/C1=C\c1nc(-c2ccc(F)cc2)oc1O	7.57 µM
O=[N+]([O-])c1ccc(/C=N/Nc2nc(-c3ccccc3)c3cc(Br)ccc3n2)o1	0.466 µM
Cc1ccc(-c2nn(-c3ccccc3)cc2/C=N/NC(=O)CSc2nnc(C)n2-c2ccccc2)cc1	9.84 µM
O=C(Nc1cccc(-c2ccc(N3CCOCC3)nn2)c1)c1ccccc1Cl	> 15 µM (inactive)
COc1ccccc1CN1CN(S(=O)(=O)c2ccccc2)c2nc3ccccc3nc21	5.13 µM
O=C(c1cnn2c(C(F)(F)F)cc(-c3ccc(F)cc3)nc12)N1CCc2ccccc2C1	12.1 µM
CC(=O)c1cccc2c(O)c(C3=Nc4ccccc4C3=O)[nH]c12	6.32 µM
Cc1cc(C)c2nc(NNC(=O)c3ccc(S(=O)(=O)N4CCCC(C)C4)cc3)sc2c1 (stereo unspecified)	0.297 µM
CCc1ccc2nc(N3C(=O)C(O)=C(C(=O)c4ccco4)C3c3cccs3)sc2c1 (stereo unspecified)	1.88 µM
Fc1ccc(N2CCN(Cc3cn[nH]c3-c3ccccc3)CC2)cc1	> 15 µM (inactive)
COc1ccc(OC)c(NC(=O)NCc2cccnc2)c1	> 15 µM (inactive)
COC(=O)c1ccc(N2CCN(C)CC2)c(NC(=O)COc2ccc(C)cc2)c1	> 15 µM (inactive)
CN(C)CCNC=C(C(=O)Nc1ccc(Cl)cc1Cl)C(=O)Nc1ccc(Cl)cc1Cl	3.38 µM
O=C(c1ccccc1Cl)N1CCN(S(=O)(=O)c2cccs2)CC1	> 15 µM (inactive)
CC1CCCCN1S(=O)(=O)c1ccc(C(=O)Nc2nnc(-c3cccs3)o2)cc1 (stereo unspecified)	0.659 µM
COc1ccc(-c2cc3nc4n(c(=O)c3s2)CCC4)cc1	0.734 µM
Cc1nnc(NC(=O)c2ccc(S(=O)(=O)N(C)Cc3ccccc3)cc2)o1	4.71 µM
CC(C)(C)NC(=O)C1CC2CCCCC2CN1 (stereo unspecified)	> 15 µM (inactive)
